This note sets out measurements from ChEMBL document CHEMBL5634123, “Design and synthesis of 1H-benzo[d]imidazole selective HDAC6 inhibitors with potential therapy for multiple myeloma” (Eur J Med Chem, 2023).

pIC50: −log10 of the molar value. Active and inactive are the calls of the source. The rule behind the calls is not given here.

The test system of data set [1] is HCCLM3. The data set can be described thus: Cytotoxicity against human HCCLM3 cells assessed as inhibition of cell viability incubated for 24 hrs by CCK8 assay. The data set is classed as functional, cell-based. Particulars: HCCLM3, 24 h.
Data set [2] concerns the target Histone deacetylase 2 (Homo sapiens, UniProt Q92769). The data set can be described thus: Inhibition of HDAC2 (unknown origin) preincubated for 10 mins followed by substrate addition by fluorescence based assay.
The target of data set [3] is T1, Histone deacetylase 8 (Homo sapiens, UniProt Q9BY41).
T1 sequence (Q9BY41 whole entry): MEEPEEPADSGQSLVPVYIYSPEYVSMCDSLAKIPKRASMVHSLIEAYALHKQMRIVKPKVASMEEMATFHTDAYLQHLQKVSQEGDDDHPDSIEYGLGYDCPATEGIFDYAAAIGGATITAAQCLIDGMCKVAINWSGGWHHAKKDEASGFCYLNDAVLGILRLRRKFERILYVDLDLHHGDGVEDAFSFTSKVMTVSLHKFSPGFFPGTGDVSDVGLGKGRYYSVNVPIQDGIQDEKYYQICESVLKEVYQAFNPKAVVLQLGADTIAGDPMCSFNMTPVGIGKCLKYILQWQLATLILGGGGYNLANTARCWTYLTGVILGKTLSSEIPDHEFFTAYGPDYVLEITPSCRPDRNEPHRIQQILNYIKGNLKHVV
The data set can be described thus: Inhibition of HDAC8 (unknown origin) preincubated for 10 mins followed by substrate addition by fluorescence based assay.

Data set [4] has as its target Histone deacetylase 5 (Homo sapiens, UniProt Q9UQL6). The data set can be described thus: Inhibition of HDAC5 (unknown origin) preincubated for 10 mins followed by substrate addition by fluorescence based assay.
Data set [5] addresses T2, Histone deacetylase 11 (Homo sapiens, UniProt Q96DB2).
T2 sequence (Q96DB2 whole entry): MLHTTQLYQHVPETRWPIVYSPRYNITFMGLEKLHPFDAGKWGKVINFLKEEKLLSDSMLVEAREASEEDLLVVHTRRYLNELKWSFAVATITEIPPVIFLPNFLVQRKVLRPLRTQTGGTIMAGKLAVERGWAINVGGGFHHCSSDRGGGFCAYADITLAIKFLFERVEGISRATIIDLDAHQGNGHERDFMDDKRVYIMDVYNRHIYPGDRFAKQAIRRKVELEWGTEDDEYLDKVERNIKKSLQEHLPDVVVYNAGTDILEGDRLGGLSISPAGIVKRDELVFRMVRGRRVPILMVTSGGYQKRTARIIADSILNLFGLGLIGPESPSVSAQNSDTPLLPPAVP
In words: Inhibition of HDAC11 (unknown origin) preincubated for 10 mins followed by substrate addition by fluorescence based assay.

Data set [6] concerns the target T3, Protein deacetylase HDAC6 (Homo sapiens) (UniProt Q9UBN7).
T3 sequence (whole entry): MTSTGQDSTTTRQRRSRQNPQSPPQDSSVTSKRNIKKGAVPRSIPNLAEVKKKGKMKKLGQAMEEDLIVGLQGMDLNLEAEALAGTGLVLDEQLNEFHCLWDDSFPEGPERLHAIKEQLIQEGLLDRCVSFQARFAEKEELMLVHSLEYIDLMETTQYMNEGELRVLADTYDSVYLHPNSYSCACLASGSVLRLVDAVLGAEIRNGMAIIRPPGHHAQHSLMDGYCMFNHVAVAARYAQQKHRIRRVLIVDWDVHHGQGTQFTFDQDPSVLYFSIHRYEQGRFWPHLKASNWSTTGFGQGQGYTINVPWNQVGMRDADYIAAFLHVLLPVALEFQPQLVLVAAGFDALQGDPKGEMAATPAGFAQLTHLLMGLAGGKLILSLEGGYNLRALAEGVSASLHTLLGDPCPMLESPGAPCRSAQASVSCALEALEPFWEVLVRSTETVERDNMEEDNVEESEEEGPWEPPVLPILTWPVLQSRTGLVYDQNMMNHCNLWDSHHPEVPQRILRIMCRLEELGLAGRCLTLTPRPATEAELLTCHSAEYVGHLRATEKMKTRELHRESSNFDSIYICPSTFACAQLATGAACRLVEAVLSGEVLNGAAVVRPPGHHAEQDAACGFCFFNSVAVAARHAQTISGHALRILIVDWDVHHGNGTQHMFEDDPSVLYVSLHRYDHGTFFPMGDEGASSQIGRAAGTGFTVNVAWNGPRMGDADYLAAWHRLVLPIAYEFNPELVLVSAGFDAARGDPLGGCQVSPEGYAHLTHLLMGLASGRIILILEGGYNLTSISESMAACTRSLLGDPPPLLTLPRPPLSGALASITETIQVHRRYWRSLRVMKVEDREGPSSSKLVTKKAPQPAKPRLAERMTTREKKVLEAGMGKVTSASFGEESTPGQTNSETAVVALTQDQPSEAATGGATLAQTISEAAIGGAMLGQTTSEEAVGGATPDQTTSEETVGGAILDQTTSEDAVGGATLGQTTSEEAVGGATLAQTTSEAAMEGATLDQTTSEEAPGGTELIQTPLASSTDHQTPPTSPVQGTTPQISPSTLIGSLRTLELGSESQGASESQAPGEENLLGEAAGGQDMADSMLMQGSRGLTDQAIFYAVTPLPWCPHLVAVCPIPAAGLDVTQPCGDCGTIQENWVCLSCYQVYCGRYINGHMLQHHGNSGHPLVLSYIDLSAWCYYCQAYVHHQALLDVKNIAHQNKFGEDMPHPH
The data set can be described thus: Inhibition of HDAC6 in human RPMI-8226 cells assessed as increase in Ac-alpha-tubulin expression at 0.5 to 2.5 uM incubated for 24 hrs by Western blot analysis. The class given is cell-based. The note with it: dose 0.5-2.5 µM.

For data set [7], the system named is RPMI-8226. The data set can be described thus: Induction of apoptosis in human RPMI-8226 cells assessed as viable cells at 0.5 uM incubated for 24 hrs by Annexin V-FITC/PI staining based flow cytometry (reference value: 90.98 %). Particulars: read-out: Activity. The data set is classed as functional. On the technique in general: Flow cytometry measures light scatter and fluorescence of single cells or particles in a stream.

For data set [8], the system named is RPMI-8226. The data set can be described thus: Induction of apoptosis in human RPMI-8226 cells assessed as early apoptotic cells at 2.5 uM incubated for 24 hrs by Annexin V-FITC/PI staining based flow cytometry (reference value: 5.34 %). The class given is functional.
In data set [9] the test system is RPMI-8226. The data set can be described thus: Induction of apoptosis in human RPMI-8226 cells assessed as necrotic cells at 2.5 uM incubated for 24 hrs by Annexin V-FITC/PI staining based flow cytometry (reference value: 0.90 %). The data set is classed as functional.
The test system of data set [10] is RPMI-8226. In words: Induction of apoptosis in human RPMI-8226 cells assessed as increase in caspase-3 expression at 0.1 to 2.5 uM incubated for 24 hrs by Western blot analysis. The data set is classed as functional, cell-based. Particulars: dose 0.1-2.5 µM.
Data set [11] is described as follows: Volume of distribution at steady state in mouse at 1 mg/kg, iv. The data set is classed as ADME, organism-based. The note with it: in vivo, read-out: Vdss.
Data set [12] in a line: Half life in mouse at 1 mg/kg, iv. The class given is ADME, organism-based. Particulars: in vivo.
Data set [13] in a line: Tmax in mouse at 10 mg/kg, po. The class given is ADME, organism-based. Particulars: in vivo.
Data set [14] in a line: Toxicity in Balb/c nude mouse xenografted with human RPMI-8226 cells assessed as adverse effect on liver at 10 to 40 mg/kg, po qd for 21 days administered consecutively by H and E staining based analysis. Particulars: in vivo, 504 h, dose 10-40 mg/kg, time 21 day. The class given is organism-based. For orientation: Xenograft models place foreign cells or tissue in a host animal.

Data set [15] relates to MDA-MB-468. The data set can be described thus: cells. Particulars: Homo sapiens, MDA-MB-468, 24 h.

Chain of Histone deacetylase 5 (Q9UQL6 whole entry): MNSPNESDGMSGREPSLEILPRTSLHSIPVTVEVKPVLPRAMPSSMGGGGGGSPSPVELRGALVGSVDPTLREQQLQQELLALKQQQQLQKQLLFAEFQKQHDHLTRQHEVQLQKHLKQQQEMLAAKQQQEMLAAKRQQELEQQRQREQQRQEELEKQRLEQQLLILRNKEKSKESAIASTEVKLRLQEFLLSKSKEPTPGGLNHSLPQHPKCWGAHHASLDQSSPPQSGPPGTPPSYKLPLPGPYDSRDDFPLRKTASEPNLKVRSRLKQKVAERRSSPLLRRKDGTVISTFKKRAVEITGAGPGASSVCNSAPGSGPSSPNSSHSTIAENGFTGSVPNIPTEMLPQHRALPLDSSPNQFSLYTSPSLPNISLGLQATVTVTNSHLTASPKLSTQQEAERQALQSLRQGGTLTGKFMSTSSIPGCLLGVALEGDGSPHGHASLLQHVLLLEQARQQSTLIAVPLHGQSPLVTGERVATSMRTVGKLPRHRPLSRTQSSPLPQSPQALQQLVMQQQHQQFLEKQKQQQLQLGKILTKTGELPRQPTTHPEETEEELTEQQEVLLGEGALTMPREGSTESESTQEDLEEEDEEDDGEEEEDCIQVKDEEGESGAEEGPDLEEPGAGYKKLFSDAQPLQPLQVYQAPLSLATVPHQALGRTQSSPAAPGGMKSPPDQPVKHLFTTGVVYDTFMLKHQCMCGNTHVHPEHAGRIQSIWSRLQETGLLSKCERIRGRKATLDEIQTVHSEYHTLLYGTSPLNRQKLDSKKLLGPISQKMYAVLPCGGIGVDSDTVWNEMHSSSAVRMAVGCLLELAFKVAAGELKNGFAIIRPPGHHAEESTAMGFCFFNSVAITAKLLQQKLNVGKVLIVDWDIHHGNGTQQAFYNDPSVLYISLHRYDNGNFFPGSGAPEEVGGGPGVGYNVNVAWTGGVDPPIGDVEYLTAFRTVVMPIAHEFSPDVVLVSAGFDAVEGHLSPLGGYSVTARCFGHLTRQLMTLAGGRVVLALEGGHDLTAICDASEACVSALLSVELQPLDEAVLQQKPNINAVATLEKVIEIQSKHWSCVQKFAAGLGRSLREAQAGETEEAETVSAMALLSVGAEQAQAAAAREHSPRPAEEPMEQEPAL
Chain of Histone deacetylase 2 (Q92769 whole entry): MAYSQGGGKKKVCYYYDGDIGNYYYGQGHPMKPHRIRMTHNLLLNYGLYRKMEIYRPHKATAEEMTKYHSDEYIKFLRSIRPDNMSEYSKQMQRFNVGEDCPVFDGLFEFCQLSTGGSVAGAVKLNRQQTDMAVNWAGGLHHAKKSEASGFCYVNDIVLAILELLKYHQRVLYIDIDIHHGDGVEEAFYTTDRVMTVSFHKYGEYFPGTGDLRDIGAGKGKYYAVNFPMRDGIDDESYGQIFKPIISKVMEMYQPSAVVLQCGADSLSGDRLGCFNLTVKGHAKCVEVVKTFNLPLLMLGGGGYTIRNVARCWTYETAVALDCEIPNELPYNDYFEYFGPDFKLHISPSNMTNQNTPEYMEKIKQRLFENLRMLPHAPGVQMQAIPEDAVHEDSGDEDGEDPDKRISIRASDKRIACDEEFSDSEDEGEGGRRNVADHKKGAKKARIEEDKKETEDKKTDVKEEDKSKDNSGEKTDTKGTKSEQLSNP

Usually pIC50 stands for the negative decadic logarithm of the IC50, by convention in mol/L. The term half-life denotes how long it takes for the measured level to halve. Low values mean fast loss, high ones slow loss. Broadly, the Tmax is the time from dosing to the highest level. Consider `Cn1c([C@@H](Cc2ccccc2)NCc2ccccc2)nc2cc(C(=O)NO)ccc21`, for which the pIC50 in [1] is under 4.30; in data set [2] it was 5.75; in data set [3] it was 6.06; in data set [4], 5.67; in [5] it was 6.01; in [15] it was under 4.30. Also, in data set [6], the inhibition result is “Active”. Besides, the viability at 0.5 µM in data set [7] was 81.2%. Also, the Activity in data set [8] is on record as 18.97%; in data set [9], 0.26%; in [14], “Non-Toxic”. Moreover, in [10], the result was Active. In addition, the Vd in data set [11] came to 2.29 L/kg. In [12], this compound showed a half-life of 41.9 min. In addition, the Tmax in data set [13] was 20 min.
